In US20220031680A1, “Donecopride As Neuroprotective Agent In the Treatment of Neurodegenerative Diseases” (priority 2018, published 2022):
Values joined by “and” are separate entries in the source; they are usually repeats but may differ in a detail not shown here. Equal values may be shown once.

System: α-syn
Experiment: α-syn aggregation in TH neurons injured with MPP+
Format: cell-based, rat
Conditions: MPP+ 4 μM 48 h; 1 h pre-incubation
Description: The aim of the present study was to investigate the neuroprotective effect of MR36014 and MR33583 (at 4 concentrations) on dopaminergic TH-positive neurons injured with MPP^+. The test compounds were pre-incubated for 1 hour before MPP^+ application (4 μM for 48 h). The neuroprotective effect (survival and neurite network) of test compounds was investigated. In addition, the effect on the cytoplasmic alpha-synuclein accumulation was studied.
Rat dopaminergic neurons were cultured as described by Callizot et al. (2019) PLoS One 14:e0215277 and Visanji et al. (2008) FASEB J. 22:2488-2497. Briefly, pregnant female rat (Wistar) of 15 days of gestation were killed using a deep anesthesia with CO2 chamber and a cervical dislocation. The midbrains obtained from 15-day-old rat embryos (Janvier, France) were dissected under a microscope. […]
Midbrains were dissociated by trypsinisation for 20 min at 37° C. […] Viable cells were counted in a Neubauer cytometer using the trypan blue exclusion test. […]
Briefly, on day 6 of culture, the medium was removed, and fresh medium was added, with or without test compounds and with or without MPP^+ for 48 hours diluted in control medium. 6 wells per condition were assessed. […]
Test compounds were tested in 96-well plate (n=6 culture wells per condition). […] The following conditions were assessed: […]

| SMILES | concentrations reducing accumulation/aggregation of α-syn |
| --- | --- |
| COc1cc(N)c(F)cc1C(=O)CCC1CCN(CC2CCCC2)CC1 [MR33583] | 50 nM and 100 nM |
| COc1cc(N)c(F)cc1C(=O)CCC1CCN(CC2CCCCCC2)CC1 [MR36014] | all investigated doses |
